Values joined by “and” are separate entries in the source; they are usually repeats but may differ in a detail not shown here. Identical values can stand only once. Inconclusive results and toxic doses are left out. Square brackets hold non-standard residues; d marks the D form. Peptide text beside a SMILES is read from it. Ac5c = NC1(C(=O)O)CCCC1; Sar = CNCC(=O)O
System: P388 leukemia ip, CD2F1 mice, survival T/C
Test: NCI In Vivo Anticancer Drug Screen. Data for tumor model P388 Leukemia (intraperitoneal) in CD2F1 (CDF1) mice
Details: endpoint: median survival time, higher = longer survival
Method in brief: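 Mice carrying the transplanted tumor received test compound or vehicle. Survival was recorded in each group, and the value is the treated-group measurement divided by that of the vehicle-treated control group.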

[1] = dose: 50.0 mg/kg/injection, schedule: Q01DX009 (ip), vehicle: saline with Tween-80
[2] = dose: 100.0 mg/kg/injection, schedule: Q01DX009 (ip), vehicle: saline with Tween-80
[3] = dose: 200.0 mg/kg/injection, schedule: Q01DX009 (ip), vehicle: saline with Tween-80
[4] = dose: 25.0 mg/kg/injection, schedule: Q01DX009 (ip), vehicle: saline
[5] = dose: 50.0 mg/kg/injection, schedule: Q01DX009 (ip), vehicle: saline
[6] = dose: 100.0 mg/kg/injection, schedule: Q01DX009 (ip), vehicle: saline
[7] = dose: 200.0 mg/kg/injection, schedule: Q01DX009 (ip), vehicle: saline
[8] = dose: 60.0 mg/kg/injection, schedule: Q01DX005 (ip), vehicle: saline with Tween-80
[9] = dose: 120.0 mg/kg/injection, schedule: Q01DX005 (ip), vehicle: saline with Tween-80
[10] = dose: 240.0 mg/kg/injection, schedule: Q01DX005 (ip), vehicle: saline with Tween-80

## CCOC1=CC(=O)/C(=C/O[Si](C)(C)C)CC1
[1]
  T/C: 103 % of control
[2]
  T/C: 99 % of control

## CC1(C)N=C(N)N=C(N)N1c1ccc(F)cc1
dose: 12.5 mg/kg/injection, schedule: Q01DX005 (ip), vehicle: Klucel (hydroxypropylcellulose) (HPC)
  T/C: 110 % of control
dose: 25.0 mg/kg/injection, schedule: Q01DX005 (ip), vehicle: Klucel (hydroxypropylcellulose) (HPC)
  T/C: 113 % of control

## CC1(C)CC(OC(=O)c2c3ccccc3c3ccc4cccc5ccc2c3c54)CC(C)(C)N1O
[1]
  T/C: 91 % of control
[2]
  T/C: 91 % of control
[3]
  T/C: 90 % of control

## CCN(CC)CCNC(=O)c1nn(-c2ccccc2)c2c1CCc1ccccc1-2
dose: 25.0 mg/kg/injection, schedule: Q04DX003 (ip), vehicle: saline
  T/C: 100 % of control
dose: 50.0 mg/kg/injection, schedule: Q04DX003 (ip), vehicle: saline
  T/C: 101 % of control
dose: 100.0 mg/kg/injection, schedule: Q04DX003 (ip), vehicle: saline
  T/C: 102 % of control and 107 % of control

## CC[n+]1ccc(/C=C\c2c(Cl)cccc2Cl)cc1
dose: 6.25 mg/kg/injection, schedule: Q01DX009 (ip), vehicle: saline
  T/C: 96 % of control
dose: 12.5 mg/kg/injection, schedule: Q01DX009 (ip), vehicle: saline
  T/C: 104 % of control
[4]
  T/C: 106 % of control

## CCOC(=O)C(Cc1ccccc1)NO (centres undefined)
dose: 6.25 mg/kg/injection, schedule: Q01DX009 (ip), vehicle: saline with Tween-80
  T/C: 98 % of control
dose: 12.5 mg/kg/injection, schedule: Q01DX009 (ip), vehicle: saline with Tween-80
  T/C: 100 % of control

## CC(=O)Oc1c(C)[nH]ccc1=O
[4]
  T/C: 103 % of control and 104 % of control
[5]
  T/C: 107 % of control and 112 % of control and 116 % of control
[6]
  T/C: 116 % of control
[7]
  T/C: 154 % of control
dose: 400.0 mg/kg/injection, schedule: Q01DX009 (ip), vehicle: saline
  T/C: 152 % of control and 161 % of control and 179 % of control
dose: 800.0 mg/kg/injection, schedule: Q01DX009 (ip), vehicle: saline
  T/C: 180 % of control

## Clc1cccc(C(Nc2nncs2)Nc2nncs2)c1Cl
[8]
  T/C: 89 % of control
[9]
  T/C: 100 % of control
[10]
  T/C: 96 % of control

## CCCCCCC(=O)/C=C/c1ccccc1OCOC
dose: 50.0 mg/kg/injection, schedule: Q01DX009 (ip), vehicle: Klucel (hydroxypropylcellulose) (HPC)
  T/C: 100 % of control (2×) and 108 % of control
dose: 100.0 mg/kg/injection, schedule: Q01DX009 (ip), vehicle: Klucel (hydroxypropylcellulose) (HPC)
  T/C: 99 % of control and 100 % of control and 106 % of control
dose: 200.0 mg/kg/injection, schedule: Q01DX009 (ip), vehicle: Klucel (hydroxypropylcellulose) (HPC)
  T/C: 103 % of control and 111 % of control
dose: 400.0 mg/kg/injection, schedule: Q01DX009 (ip), vehicle: Klucel (hydroxypropylcellulose) (HPC)
  T/C: 117 % of control

## CNCC(=O)NC1(C(=O)O)CCCC1 (H-[Sar]-[Ac5c]-OH)
[5]
  T/C: 100 % of control
[6]
  T/C: 94 % of control
[7]
  T/C: 109 % of control

## C=C(C)C1CC(=O)C2(C)C(C1)OC(=O)C2C(=O)OCC (centres undefined)
dose: 100.0 mg/kg/injection, schedule: Q04DX002 (ip), vehicle: Klucel (hydroxypropylcellulose) (HPC)
  T/C: 101 % of control
dose: 200.0 mg/kg/injection, schedule: Q04DX002 (ip), vehicle: Klucel (hydroxypropylcellulose) (HPC)
  T/C: 103 % of control and 106 % of control
dose: 400.0 mg/kg/injection, schedule: Q04DX002 (ip), vehicle: Klucel (hydroxypropylcellulose) (HPC)
  T/C: 103 % of control and 104 % of control

## CCc1cc(C)cc(NC(=O)OC2CCCCC2C)c1 (centres undefined)
[8]
  T/C: 102 % of control
[9]
  T/C: 112 % of control
[10]
  T/C: 111 % of control

## COc1cc(/C=C2\CN(C)C(=O)C2=O)ccc1O
[1]
  T/C: 100 % of control
[2]
  T/C: 108 % of control
[3]
  T/C: 109 % of control
dose: 400.0 mg/kg/injection, schedule: Q01DX009 (ip), vehicle: saline with Tween-80
  T/C: 108 % of control

## O=[N+]([O-])C1CCC(N=Nc2c(O)ccc3ccccc23)CC1 (centres undefined)
[8]
  T/C: 96 % of control
[9]
  T/C: 99 % of control
[10]
  T/C: 99 % of control

## Cc1c(Cl)cccc1Nc1ncccc1C(=O)O
dose: 50.0 mg/kg/injection, schedule: Q01DX005 (ip), vehicle: saline with Tween-80
  T/C: 95 % of control
dose: 100.0 mg/kg/injection, schedule: Q01DX005 (ip), vehicle: saline with Tween-80
  T/C: 105 % of control

## COCC(O)COC
[5]
  T/C: 94 % of control
[6]
  T/C: 96 % of control
[7]
  T/C: 87 % of control

Source: PubChem BioAssay AID330 (DTP/NCI, 2004)
